One assay concerns the target T1, CCR7 (Homo sapiens, UniProt P32248).
T1 construct: purchased Promega (in-house HiBiT-GPCR construct library, NanoBRET)
T1 sequence (P32248 25-378): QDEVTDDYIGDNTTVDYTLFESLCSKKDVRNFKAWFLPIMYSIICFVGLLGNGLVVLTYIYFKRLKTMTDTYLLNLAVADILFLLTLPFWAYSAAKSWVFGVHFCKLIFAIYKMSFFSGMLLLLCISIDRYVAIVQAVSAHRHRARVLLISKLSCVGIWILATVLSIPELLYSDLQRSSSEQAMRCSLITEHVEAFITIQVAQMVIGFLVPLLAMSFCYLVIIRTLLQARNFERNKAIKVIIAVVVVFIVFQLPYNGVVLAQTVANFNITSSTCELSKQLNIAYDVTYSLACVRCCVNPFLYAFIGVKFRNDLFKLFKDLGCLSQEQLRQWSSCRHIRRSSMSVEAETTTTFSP
The assay can be described thus: NanoBRET screen HiBiT-CCR7 in HEK293. Type of assay: binding. How it is done: (§1) Each tracer candidate was screened across the entire library of HiBiT-GPCR constructs using NanoBRET as the detection modality. As depicted in Figure 4A, the specificity of interactions was evaluated through decrease in BRET due to competitive displacement of a bound tracer by excess parental compound. Each tracer was analyzed for binding to each HiBiT-GPCR fusion in the absence and in the presence of competing parental compound. Briefly, HEK293 cells were transfected with HiBiT-GPCR constructs diluted into promoterless DNA to reduce expression and maximize translocation to the cell surface. Each tracer candidate was then screened at concentrations of 1 μM and 0.1 μM across cells expressing these fusions. Cells were treated for 1.5 h with tracer either alone or in the presence of 20 μM competing parental compound (i.e., control). BRET was measured upon addition of purified LgBiT and subsequent complementation with HiBiT genetically fused to a GPCR. The specificity of interactions was assessed through a decrease in BRET signal due to competitive displacement of the bound tracer. To further gauge the robustness of these interactions, the fold response over the control (i.e., BRETtracer/BRETcontrol) was calculated. We chose a 1.5-fold response, which translates to ≥7-fold signal over noise as the minimal threshold required to score an interaction as positive. […]. Below we highlight the screening results obtained for our exemplary fluorescent tracers based on Clozapine, Amitriptyline and AZD1283.
(§2) HiBiT-GPCR DNA constructs were diluted in 10 mM Tris pH 8 to a final concentration of 0.01 μg/μL, arrayed in 96-well plates and stored at −20 °C. For transfection, HEK293 cells were suspended in Opti-MEM (without phenol red) supplemented with 2% fetal bovine serum (Seradigm) and 100 units/mL penicillin–streptomycin (Gibco) at a final concentration of 220,000 cells/mL and dispensed into white 96-well plates at 90 μL/well. Subsequent transfections and screens were carried using an Agilent Bravo Automated Liquid Handling Platform. First, the 96-well HiBiT DNA arrays were diluted 25-fold in Opti-MEM (without serum or phenol red) to a final concentration of 0.0004 μg/μL and 20 μL of the diluted DNAs were transferred into new 96-well plates. Next, promoterless carrier DNA (1 μg/μL) was diluted 25-fold (0.04 μg/μL) and then dispensed into the diluted arrays at 20 μL/well. Following brief mixing, Viafect transfection reagent (Promega) diluted 16-fold into Opti-MEM was dispensed into the plates at 40 μL/well. After mixing by pipetting, plates were incubated for 10 min on the pipetting station deck. The DNA-transfection reagent complexes were then added to plates containing cells. To facilitate the screen, 10 μL of DNA-transfection reagent complexes were added in duplicates to the top 4 and bottom 4 rows, resulting in two identical 48-well arrays per plate. Plates with transfected cells were incubated for 18–20 h at 37 °C/5% CO2. A screen of each tracer across the entire library using two different concentrations requires duplicate plates of transfected cells. Depending on the number of tracers being screened, transfections can be scaled up using the same ratios. The next day, for each tracer, four 20× screening solutions in tracer dilution buffer (Promega) were prepared: two duplicates at final concentration of 20 μM and two duplicates at a final concentration of 2 μM. A competing unmodified compound was added to one of each duplicate at a final concentration of 400 μM. The four resulting solutions were diluted 4-fold in Opti-MEM without serum or phenol red to generate 5× solutions (5 µM and 0.5 µM tracer +/− 100 μM competing compound). To screen the library, a BioTek MultiFlo FX liquid dispenser was used to dispense 22.5 µL of tracer solution to the top 4 rows and 22.5 µL tracer + competing compound solution to the 4 bottom rows. Plates were briefly mixed on an orbital shaker and incubated for 1.5 h at room temperature. […]
In general terms: Bioluminescence resonance energy transfer reports proximity on the nanometre scale.

For a further assay, the target named is T2, FZD4 (Homo sapiens, UniProt Q9ULV1).
T2 construct: purchased Promega (in-house HiBiT-GPCR construct library, NanoBRET)
T2 sequence (Q9ULV1 37-537): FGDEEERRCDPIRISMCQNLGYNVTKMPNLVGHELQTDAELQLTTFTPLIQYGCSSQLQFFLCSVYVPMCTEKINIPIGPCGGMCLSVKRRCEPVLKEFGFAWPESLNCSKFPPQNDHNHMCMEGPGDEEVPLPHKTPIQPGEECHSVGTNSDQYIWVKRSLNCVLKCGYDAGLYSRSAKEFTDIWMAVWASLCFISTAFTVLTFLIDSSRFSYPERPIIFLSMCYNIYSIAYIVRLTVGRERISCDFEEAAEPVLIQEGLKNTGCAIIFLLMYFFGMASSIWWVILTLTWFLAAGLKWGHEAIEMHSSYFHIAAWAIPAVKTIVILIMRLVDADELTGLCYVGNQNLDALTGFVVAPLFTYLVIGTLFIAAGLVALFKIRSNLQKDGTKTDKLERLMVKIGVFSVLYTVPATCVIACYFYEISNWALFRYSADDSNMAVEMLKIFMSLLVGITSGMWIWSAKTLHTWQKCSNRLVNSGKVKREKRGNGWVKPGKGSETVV
The assay can be described thus: NanoBRET screen HiBiT-FZD4 in HEK293. The format is binding. As for the experimental part:
as §1, §2

[1] abbreviates: tracer at 0.1μM, listed as amitriptyline-b-2-NB590.
The mark [2] stands for this setting: tracer at 1μM, listed as amitriptyline-b-2-NB590.

Turning to `COc1ccc2c(n1)c(CCNC(C)=O)cn2CCNC(=O)CCc1ccc2n1[B-](F)(F)[N+]1=C(c3ccc[nH]3)C=CC1=C2` [Azamelatonin-1-NB590], the “NanoBRET Fold Response” value at CCR7 (0.1μM tracer) is 0.88; on CCR7 (1μM tracer), 0.96; at FZD4 (0.1μM tracer), 0.91; on FZD4 (1μM tracer) it was 0.91.
`CC(C)N(CC[C@H](c1ccccc1)c1cc(CCNC(=O)c2ccc(CNC(=O)CCc3ccc4n3[B-](F)(F)[N+]3=C(c5ccc[nH]5)C=CC3=C4)cc2)ccc1O)C(C)C` [Tolterodine-BZ-NB590]: the “NanoBRET Fold Response” value on CCR7 (CCR7, tracer 0.1μM) turned out to be 1.00; on CCR7 (CCR7, tracer 1μM), 1.01; on FZD4 (FZD4, tracer 0.1μM), 0.93; on FZD4 (FZD4, tracer 1μM), 1.07.
Take `O=C(CCc1ccc2n1[B-](F)(F)[N+]1=C(c3ccc[nH]3)C=CC1=C2)NCCOCCOCCNC(=O)OCCOCCN1CCN(C2=Nc3ccccc3Sc3ccccc32)CC1` [Quetiapine-a-2-NB590]: the “NanoBRET Fold Response” value at CCR7 (CCR7, tracer 0.1μM) was found to be 1.03; at CCR7 (CCR7, tracer 1μM), 1.01; on FZD4 (FZD4, tracer 0.1μM), 0.96; at FZD4 (FZD4, tracer 1μM) it was 0.91.
On to `Cc1cc2c(s1)Nc1ccccc1N=C2N1CCN(CCCNC(=O)CCOCCOCCOCCOCCNC(=O)CCc2ccc3n2[B-](F)(F)[N+]2=C(c4ccc[nH]4)C=CC2=C3)CC1` [Olanzapine-a-2-NB590], for which the “NanoBRET Fold Response” value worked out at 1.01 at CCR7 (CCR7, tracer 0.1μM); 1.05 on CCR7 (CCR7, tracer 1μM); 1.00 on FZD4 (FZD4, tracer 0.1μM); 0.93 on FZD4 (FZD4, tracer 1μM).
As to `O=C(CCc1ccc2n1[B-](F)(F)[N+]1=C(c3ccc[nH]3)C=CC1=C2)NCc1ccc(C(=O)NCCOCCOCCNCC(O)COc2cccc3ccccc23)cc1` (centres unmarked) [Propranolol-3-NB590], the “NanoBRET Fold Response” value was found to be 1.03 on CCR7 (CCR7, 0.1μM); 1.01 at CCR7 (CCR7, 1μM); 1.09 on FZD4 (FZD4, 0.1μM); 1.07 on FZD4 (FZD4, 1μM).
As to `CN1CCN(C2=Nc3cc(Cl)ccc3N(CC(=O)NCCOCCOCCOCCOCCNC(=O)CCc3ccc4n3[B-](F)(F)[N+]3=C(c5ccc[nH]5)C=CC3=C4)c3ccccc32)CC1` [Clozapine-c-2-NB590], the “NanoBRET Fold Response” value on CCR7 (CCR7, 0.1μM tracer) was 0.97; at CCR7 (CCR7, 1μM tracer) it was 1.04; at FZD4 (FZD4, 0.1μM tracer), 1.02; on FZD4 (FZD4, 1μM tracer), 0.93.
Consider `O=C(CCc1ccc2n1[B-](F)(F)[N+]1=C(c3ccc[nH]3)C=CC1=C2)NCc1ccc(C(=O)NCCOCCC(=O)N[C@@H]2CC[C@@]3(O)[C@H]4Cc5ccc(O)c6c5[C@@]3(CCN4CC3CC3)[C@H]2O6)cc1` [Naltrexone-3-NB590], for which the “NanoBRET Fold Response” value was 1.07 on CCR7 (CCR7, tracer 0.1μM); 1.05 at CCR7 (CCR7, tracer 1μM); 0.89 at FZD4 (FZD4, tracer 0.1μM); 1.14 at FZD4 (FZD4, tracer 1μM).
For `CC(C)N(CC[C@H](c1ccccc1)c1cc(CCNC(=O)CCOCCOCCOCCOCCNC(=O)CCc2ccc3n2[B-](F)(F)[N+]2=C(c4ccc[nH]4)C=CC2=C3)ccc1O)C(C)C` [Tolterodine-2-NB590], the “NanoBRET Fold Response” value at CCR7 (CCR7, tracer 0.1μM) worked out at 1.26; at CCR7 (CCR7, tracer 1μM), 0.88; at FZD4 (FZD4, tracer 0.1μM) it was 0.95; on FZD4 (FZD4, tracer 1μM), 0.96.
`Cc1nc2n(c(=O)c1CCN1CCC(c3noc4cc(F)ccc34)CC1)CCCC2OC(=O)NCCOCCOCCOCCOCCNC(=O)CCc1ccc2n1[B-](F)(F)[N+]1=C(c3ccc[nH]3)C=CC1=C2` (centres unmarked) [Risperidone-2-NB590]: the “NanoBRET Fold Response” value on CCR7 (CCR7, tracer 0.1μM) was determined as 1.00; at CCR7 (CCR7, tracer 1μM), 1.04; on FZD4 (FZD4, tracer 0.1μM), 1.14; on FZD4 (FZD4, tracer 1μM), 1.01.
With `O=C(CCOCCOCCOCCOCCNC(=O)CCc1ccc2n1[B-](F)(F)[N+]1=C(c3ccc[nH]3)C=CC1=C2)NCCCN1CCN(C2=Nc3cc(Cl)ccc3Nc3ccccc32)CC1` [Clozapine-a-2-NB590], the “NanoBRET Fold Response” value came to 1.01 at CCR7 (CCR7, 0.1μM tracer); 0.99 at CCR7 (CCR7, 1μM tracer); 1.20 at FZD4 (FZD4, 0.1μM tracer); 0.95 on FZD4 (FZD4, 1μM tracer).
Regarding `COc1ccc2[nH]c(-c3ccc(CNC(=O)CCOCCOCCOCCOCCNC(=O)CCc4ccc5n4[B-](F)(F)[N+]4=C(c6ccc[nH]6)C=CC4=C5)cc3)c(CCNC(C)=O)c2n1` [AzomelatoninICO9-2-NB590], the “NanoBRET Fold Response” value at CCR7 (0.1μM tracer) is reported as 1.02; on CCR7 (1μM tracer) it was 0.98; on FZD4 (0.1μM tracer) it was 0.89; on FZD4 (1μM tracer) it was 1.08.
Turning to `CN1CCN(C2=Nc3cc(Cl)ccc3Nc3ccc(CNC(=O)CCOCCOCCOCCOCCNC(=O)CCc4ccc5n4[B-](F)(F)[N+]4=C(c6ccc[nH]6)C=CC4=C5)cc32)CC1` [Clozapine-b-2-NB590], the “NanoBRET Fold Response” value at CCR7 (CCR7, 0.1μM tracer) is on record as 1.00; at FZD4 (FZD4, 0.1μM tracer), 0.99; on FZD4 (FZD4, 1μM tracer) it was 1.03.
In the case of `COc1ccccc1N1CCN(CCCCN2C(=O)c3ccc(CNC(=O)CCOCCNC(=O)c4ccc(CNC(=O)CCc5ccc6n5[B-](F)(F)[N+]5=C(c7ccc[nH]7)C=CC5=C6)cc4)cc3C2=O)CC1` [NAN-190-3-NB590], the “NanoBRET Fold Response” value at CCR7 (CCR7, tracer 0.1μM) came to 1.01; at CCR7 (CCR7, tracer 1μM), 1.00; on FZD4 (FZD4, tracer 0.1μM) it was 1.03; on FZD4 (FZD4, tracer 1μM), 1.38.
Turning to `N#CN=C(NCCCOc1cccc(CN2CCCCC2)c1)NCCNC(=O)CCOCCOCCOCCOCCNC(=O)CCc1ccc2n1[B-](F)(F)[N+]1=C(c3ccc[nH]3)C=CC1=C2` [Aminopotentidine-2-NB590], the “NanoBRET Fold Response” value on CCR7 (CCR7, tracer 0.1μM) stood at 0.96; on CCR7 (CCR7, tracer 1μM), 1.01; at FZD4 (FZD4, tracer 0.1μM) it was 0.98; at FZD4 (FZD4, tracer 1μM), 1.07.
For the compound `CN(C)CCC=C1c2ccccc2CCc2ccc(C(=O)NCCNC(=O)CCOCCOCCOCCOCCNC(=O)CCc3ccc4n3[B-](F)(F)[N+]3=C(c5ccc[nH]5)C=CC3=C4)cc21` [Amitriptyline-b-2-NB590], the “NanoBRET Fold Response” value on CCR7 (setting [1]) is reported as 1.00; at CCR7 (setting [2]), 1.00; on FZD4 (setting [1]), 1.12; on FZD4 (setting [2]), 1.19.

These data come from publication PMC8151276, “An Integrated Approach toward NanoBRET Tracers for Analysis of GPCR Ligand Engagement” (Molecules, 2021).
